According to patent US20050085447A1, “Pyrido[3,4-d]pyrimidine derivatives as matrix metalloproteinase-13 inhibitors” (Warner-Lambert Company LLC, priority 2003, published 2005):

Columns and labels:
[1] = target: T1, MMP-1 full-length (Homo sapiens, UniProt P03956); assay: Thiopeptolide substrate hydrolysis inhibition assay, MMP-1 full-length; format: biochemical; details: full-length enzyme; read-out: MMP-1FL IC50
T1 construct: have also been assayed with MMP-1 full-length
T1 sequence (P03956 100-469): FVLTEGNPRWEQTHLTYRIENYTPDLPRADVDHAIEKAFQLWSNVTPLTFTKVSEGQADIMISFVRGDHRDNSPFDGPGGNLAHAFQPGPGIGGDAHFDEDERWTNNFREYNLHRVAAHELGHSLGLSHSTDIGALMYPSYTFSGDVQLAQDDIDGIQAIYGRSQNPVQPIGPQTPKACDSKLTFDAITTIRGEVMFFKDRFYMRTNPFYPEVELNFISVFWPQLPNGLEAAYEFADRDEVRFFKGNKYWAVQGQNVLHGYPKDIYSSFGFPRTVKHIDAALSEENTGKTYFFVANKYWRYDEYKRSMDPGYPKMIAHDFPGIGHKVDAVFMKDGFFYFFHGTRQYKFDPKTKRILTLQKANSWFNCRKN
Description: (§1) The assay methods of Biological Examples 1-4 measure the amount by which a test compound reduces the hydrolysis of a thiopeptolide substrate catalyzed by a matrix metalloproteinase enzyme or catalytic domain thereof. It has been shown previously by Ye Qi-Zhuang, Hupe D., and Johnson L. (Current Medicinal Chemistry, 1996;3:407-418) that inhibitor activity against a catalytic domain of an MMP is predictive of the inhibitor activity against the respective full-length MMP enzyme. The methods described below for the inhibition of MMP-13 may also be adapted and used to determine the ability of the compounds of Formula I to inhibit other matrix metalloproteases such as MMP-1, MMP-2, MMP-3, MMP-7, MMP-8, MMP-9, MMP-12, MMP-14, MMP-17, and the like.
(§2) Thiopeptolide substrates show virtually no decomposition or hydrolysis at or below neutral pH in the absence of a matrix metalloproteinase enzyme. A typical thiopeptolide substrate commonly utilized for assays is Ac-Pro-Leu-Gly-thioester-Leu-Leu-Gly-OEt. A 100 μL assay mixture will contain 50 mM of N-2-hydroxyethylpiperazine-N′-2-ethanesulfonic acid buffer (“HEPES,” pH 7.0), 10 mM CaCl2, 100 μM thiopeptolide substrate, and 1 mM 5,5′-dithio-bis-(2-nitro-benzoic acid) (DTNB). […] The change in absorbance at 405 nm is monitored on a Thermo Max microplate reader (molecular Devices, Menlo Park, Calif.) at room temperature (22° C.). The calculation of the amount of hydrolysis of the thiopeptolide substrate is based on E412=13600 M^−1 cm^−1 for the DTNB-derived product 3-carboxy-4-nitrothiophenoxide. Assays are carried out with and without matrix metalloproteinase inhibitor compounds, and the amount of hydrolysis is compared for a determination of inhibitory activity of the test compounds.
(§3) Test compounds were evaluated at various concentrations in order to determine their respective IC50 values, the micromolar concentration of compound required to cause a 50% inhibition of catalytic activity of the respective enzyme.
(§4) Some representative compounds of Formula I have been evaluated for their ability to inhibit MMP-13, MMP-1FL, MMP-3CD, MMP-7FL, MMP-8FL, MMP-9FL, MMP-12CD, MMP-14CD, and/or MMP-17CD, wherein FL means full-length enzyme and CD means a catalytic domain of the full-length enzyme. Test compounds can be evaluated at various concentrations in order to determine their respective IC50 values, the micromolar concentration of compound required to cause a 50% inhibition of the hydrolytic activity of the respective enzyme.
(§5) Certain compounds of Formula I have also been assayed with MMP-1 full-length, MMP-3 catalytic domain, MMP-7 full-length, MMP-8 full-length, MMP-9 full-length, MMP-12 catalytic domain, MMP-14 catalytic domain, and MMP-17 catalytic domain. […] In Biological Table 2, the compound example numbers for the Compound Examples are indicated in the column labelled “Ex. No.”

[2] = target: T2, MMP-3 catalytic domain (Homo sapiens, UniProt P08254); assay: Thiopeptolide substrate hydrolysis inhibition assay, MMP-3 catalytic domain; format: biochemical; details: MES buffer pH 6.0, read-out: MMP-3CD IC50
T2 construct: MMP-1 full-length, MMP-3 catalytic domain, MMP-7 full-length
T2 sequence (P08254 100-272 limits assumed): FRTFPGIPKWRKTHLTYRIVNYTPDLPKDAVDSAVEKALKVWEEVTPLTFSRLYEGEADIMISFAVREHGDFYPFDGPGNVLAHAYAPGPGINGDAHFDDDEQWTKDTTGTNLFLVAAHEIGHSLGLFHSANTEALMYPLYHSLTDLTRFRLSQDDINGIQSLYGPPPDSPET
Description: as §1, §2, §3
It should be appreciated that the assay buffer used with MMP-3CD was 50 mM N-morpholinoethane sulfonate (“MES”) at pH 6.0 rather than the HEPES buffer at pH 7.0 described above.
as §4, §5

[3] = target: T3, MMP-7 full-length (Homo sapiens, UniProt P09237); assay: Thiopeptolide substrate hydrolysis inhibition assay, MMP-7 full-length; format: biochemical; details: full-length enzyme; read-out: MMP-7FL IC50
T3 construct: MMP-3 catalytic domain, MMP-7 full-length, MMP-8 full-length
T3 sequence (P09237 95-267): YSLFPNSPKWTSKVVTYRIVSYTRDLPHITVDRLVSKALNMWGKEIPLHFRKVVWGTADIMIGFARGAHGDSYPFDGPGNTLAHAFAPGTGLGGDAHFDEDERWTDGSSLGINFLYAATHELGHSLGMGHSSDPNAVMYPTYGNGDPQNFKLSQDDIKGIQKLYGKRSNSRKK
Description: as §1, §2, §3, §4, §5

[4] = target: T4, MMP-9 full-length (Homo sapiens, UniProt P14780); assay: Thiopeptolide substrate hydrolysis inhibition assay, MMP-9 full-length; format: biochemical; details: full-length enzyme; read-out: MMP-9FL IC50
T4 construct: MMP-8 full-length, MMP-9 full-length, MMP-12 catalytic domain
T4 sequence (P14780 94-707): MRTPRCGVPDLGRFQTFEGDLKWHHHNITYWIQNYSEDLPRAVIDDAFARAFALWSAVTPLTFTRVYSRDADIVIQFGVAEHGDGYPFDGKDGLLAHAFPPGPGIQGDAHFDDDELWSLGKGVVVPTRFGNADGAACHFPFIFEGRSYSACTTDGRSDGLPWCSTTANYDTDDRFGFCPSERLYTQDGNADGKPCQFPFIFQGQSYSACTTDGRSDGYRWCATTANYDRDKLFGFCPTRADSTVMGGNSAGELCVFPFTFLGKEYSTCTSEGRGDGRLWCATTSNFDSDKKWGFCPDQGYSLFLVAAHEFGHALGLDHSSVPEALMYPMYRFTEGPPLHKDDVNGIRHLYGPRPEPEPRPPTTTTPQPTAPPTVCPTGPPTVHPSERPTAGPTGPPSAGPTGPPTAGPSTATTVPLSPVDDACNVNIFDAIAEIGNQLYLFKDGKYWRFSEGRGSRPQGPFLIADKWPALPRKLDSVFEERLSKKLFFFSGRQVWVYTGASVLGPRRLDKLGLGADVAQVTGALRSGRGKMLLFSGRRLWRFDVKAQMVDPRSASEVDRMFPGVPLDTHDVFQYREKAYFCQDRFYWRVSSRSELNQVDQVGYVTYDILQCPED
Description: as §1, §2, §3, §4, §5

[5] = target: T5, MMP-14 catalytic domain (Homo sapiens, UniProt P50281); assay: Thiopeptolide substrate hydrolysis inhibition assay, MMP-14 catalytic domain; format: biochemical; details: read-out: MMP-14CD IC50
T5 construct: MMP-14 catalytic domain, and MMP-17 catalytic domain
Description: as §1, §2, §3, §4, §5

[6] = target: T6, MMP-17 catalytic domain (Homo sapiens, UniProt Q9ULZ9); assay: Thiopeptolide substrate hydrolysis inhibition assay, MMP-17 catalytic domain; format: biochemical; details: read-out: MMP-17 CD IC50
T6 construct: MMP-14 catalytic domain, and MMP-17 catalytic domain
T6 sequence (Q9ULZ9 126-295 limits assumed): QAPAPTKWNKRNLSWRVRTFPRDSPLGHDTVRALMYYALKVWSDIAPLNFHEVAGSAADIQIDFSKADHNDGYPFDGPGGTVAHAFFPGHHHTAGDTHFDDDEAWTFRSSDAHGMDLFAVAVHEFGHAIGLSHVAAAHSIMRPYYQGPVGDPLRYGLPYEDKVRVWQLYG
Description: as §1, §2, §3, §4, §5

[7] = Pharmacokinetics in Sprague-Dawley rats (single IV or oral dose); format: in vivo, rat
Description: For comparison purposes, a reference compound was separately characterized according to its pharmacokinetics properties except AUC in a similar manner. The reference compound (“Reference Compound 1”) was the compound of Example 188 of PCT International Patent Application Publication number WO 02/064572 A1, which is also described in PCT International Patent Application Publication number WO 02/064080 A2 in Table IVb on page 76, 5th species from the top. […] Reference Compound 1 is named 4-[6-(4-methoxy-benzylcarbamoyl)- 1 -methyl-2,4-dioxo- 1,4-dihydro-2H-pyrido[3,4-d]pyrimidin-3-ylmethyl]-benzoic acid, and has the structure drawn below: [drawing 98]

IC50 [1]: > 100 µM | IC50 [2]: 26 µM | IC50 [3]: > 100 µM | IC50 [4]: > 100 µM | IC50 [5]: > 100 µM | IC50 [6]: > 100 µM | clearance ([7]; rat, blood, Sprague-Dawley rats, single 5 mg/kg intravenous dose, read-out: IV CL): 7.1 mL/min/kg | half-life ([7]; rat, blood, Sprague-Dawley rats, single 5 mg/kg intravenous dose, read-out: IV T1/2 (converted)): 2.1 h | PO AUC (ng/hr/mL) ([7]; rats, single 5 mg/kg oral dose): 3,750 ng/hr/mL
Compound: COc1ccc(CNC(=O)c2cc3c(=O)n(Cc4ccc(C(=O)O)cc4)cnc3cn2)cc1 [Compound Example 1, 4-[6-(4-methoxy-benzylcarbamoyl)-4-oxo-4H-pyrido[3,4-d]pyrimidin-3-ylmethyl]-benzoic acid]
